Kd and IC50 data for 1 compound are collected here from BindingDB's records for doi:10.1021/acschembio.6b00666 (Virginia Tech, 2016).

Experiment [1] has as its target T1, L-ornithine N(5)-monooxygenase (Aspergillus fumigatus (strain ATCC MYA-4609 / CBS 101355 / FGSC A1100 / Af293), UniProt E9QYP0). Kind of experiment: ADP-TAMRA Binding Assay. The note with it: pH 7. The procedure: The 96 well plates were used, and the reaction volume was 25 μL using 50 mM sodium phosphate buffer (pH 7.0). For the screening, 30 nM of ADP-TAMRA with 2 μM SidA (based on the Bradford assay) and 20 μM of library compound were used, withthe final DMSO concentration at 2%. Fluorescence polarization measurements were performed with excitation at 544 nm and emission at 584 nm, using a wavelength cutoff of 570 nm. Anisotropy values were normalized to the values obtained in the negative control sample: SidA, ADP-TAMRA, and DMSO. The positive control consisted of ADP-TAMRA and DMSO.

The target of experiment [2] is T1, L-ornithine N(5)-monooxygenase. Kind of experiment: SidA Activity Assay. The note with it: pH 7.5. The method, then:
Briefly, this assay consists of the formation of nitrite from hydroxyl amine that is quantified by formation of a chromophore with α-naphthylamine, which has an absorbance maximum at 529 nm. Formation of HO-Orn was quantified using a standard curve with hydroxylamine (25−350 μM). The standard assay contained 25 μL of 100 mM sodium phosphate (pH 7.5), 1 μM SidA, 500 μM L-Orn, and 250 μM NADPH for activity and IC50 determinations. Compound concentration was varied from 0.01 to 1 mM, and the reaction mix contained a final DMSO concentration of 10%. The reaction was started with the addition of NADPH, allowed to proceed for 20 min atRT, and quenched with 13 μL of 2 N HClO4. To identify compounds that caused inhibition by inducing protein aggregation, the IC50 was determined in 100 mM phosphate buffer, pH 7.5, containing 0.1% v/v Triton X-100.23 As some compounds had either an increase or decrease in the color development or had absorbance at a visi

T1 sequence (E9QYP0 whole entry): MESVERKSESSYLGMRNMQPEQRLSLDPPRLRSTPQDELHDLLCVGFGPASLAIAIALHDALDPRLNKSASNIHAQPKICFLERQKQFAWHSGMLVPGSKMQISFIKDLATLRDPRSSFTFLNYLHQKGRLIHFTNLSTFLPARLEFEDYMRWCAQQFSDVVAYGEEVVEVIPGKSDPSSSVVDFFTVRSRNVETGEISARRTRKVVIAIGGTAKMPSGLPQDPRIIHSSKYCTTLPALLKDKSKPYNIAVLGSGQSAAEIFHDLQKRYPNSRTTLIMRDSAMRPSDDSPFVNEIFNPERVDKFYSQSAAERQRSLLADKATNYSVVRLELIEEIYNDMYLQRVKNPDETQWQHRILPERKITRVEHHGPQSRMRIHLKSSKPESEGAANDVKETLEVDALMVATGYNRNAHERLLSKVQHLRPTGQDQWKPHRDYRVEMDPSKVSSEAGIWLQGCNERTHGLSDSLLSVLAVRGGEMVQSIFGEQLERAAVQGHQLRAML

With `CC1=C(O)C(=O)C=C2C1=CC=C1[C@@]2(C)CC[C@@]2(C)[C@@H]3C[C@](C)(C(=O)O)CC[C@]3(C)CC[C@]12C` [Celastrol], the Kd in experiment [1] was 1400 nM. The same compound displayed an IC50 in experiment [2] of 11 µM.

As usually defined, the Kd is the equilibrium constant for the complex coming apart. In general, IC50 refers to the point on the concentration scale where inhibition reaches its midpoint.
